According to US8410163B2, “Substituted 4-amino-5-benzoyl-2-(phenylamino)thiophene-3-carbonitriles and substituted 4-amino-5-benzoyl-2-(phenylamino)thiophene-3-carboxamides as tubulin polymerization inhibitors” (Telik, Inc., priority 2009, dated 2013):
Like-named read-outs stand apart in the source and are kept apart here.

Key:
[1] = tested on: A549 (human lung adenocarcinoma); assay: Cytotoxicity assay (CellTiter-Glo), A549; format: cell-based; conditions: 72 h, A549 cells, three days culture, rounded to 1 significant figure
Method: (§1) The cell lines A549 (human lung adenocarcinoma), OVCAR-3 (human ovarian carcinoma), HL60 (human promyelocytic leukemia), DLD1 (human colon adenocarcinoma) and HCT116 (human colon carcinoma) were obtained from the American Type Culture Collection, Manassas, Va., U.S.A. All products were used in accordance with manufacturer's directions. The histone phosphorylation (p-H3) assay was conducted in duplicate and the cytotoxicity assays were conducted in triplicate, in each case with solvent control.
(§2) Log-phase cells were trypsinized, collected by centrifugation, and resuspended in a small volume of fresh medium, and the density of viable cells was determined following Trypan Blue staining. Cells were diluted in fresh media, the test compounds (concentrations between 0.1 μM and 200 μM, dissolved in DMSO, 50 μL) added immediately after dilution to achieve a final DMSO concentration of 0.5%, then the suspensions added at 150 μL/well to 96-well plates, and incubated overnight to allow attachment in the case of adherent cells. The cells were cultured for three days (about three doubling times). The cells were then collected by centrifugation, and 100 μL of the culture supernatant was replaced by the CellTiter-Glo reagent. After incubation for 15 minutes at room temperature, the plate was read with a luminometer. […] The table gives cytotoxicity IC50s in μM, rounded to 1 significant figure.

[2] = tested on: HL60 (human promyelocytic leukemia); assay: Cytotoxicity assay (CellTiter-Glo), HL-60; format: cell-based; conditions: 72 h, HL-60 cells, three days culture, rounded to 1 significant figure
Method: as §1, §2

tubulin = assay: Inhibition of tubulin polymerization, cell-free fluorescence assay; format: biochemical
[3] = tested on: DLD1 (human colon adenocarcinoma); assay: Cytotoxicity assay (CellTiter-Glo), DLD1; format: cell-based; conditions: DLD-1, 72 h, DLD1 cells, three days culture, rounded to 1 significant figure
Method: as §1, §2

[4] = tested on: OVCAR-3 (human ovarian carcinoma); assay: Cytotoxicity assay (CellTiter-Glo), OVCAR-3; format: cell-based; conditions: 72 h, OVCAR-3 cells, three days culture, rounded to 1 significant figure
Method: as §1, §2

[5] = tested on: HCT116 (human colon carcinoma) xenograft; assay: HCT116 xenograft assay, oral administration; format: in vivo; conditions: nu/nu mice, 200 mg/Kg by gavage once/day days 1-5 and 8-12, measured 2 days after the last day of treatment
Method: (§3) Male athymic nu/nu mice, 6-8 weeks old (about 20 g), were implanted subcutaneously in the right fore flank with about 1×10^7 cells of the HCT116 (human colon carcinoma) line that had been grown in antibiotic-free medium for at least two passages. About 14-21 days after tumor transplantation, when the tumor weight was about 50-250 mg, the mice were assigned to treatment groups. Test compounds were suspended at 20 mg/mL in 0.55 wt. % aqueous carboxymethylcellulose. Groups of mice were treated with compounds 2A, 9A, and 12A at 200 mg/Kg by gavage once/day on days 1-5 and 8-12 from the start of treatment, with vehicle control. Tumor growth inhibition was measured 2 days after the last day of treatment.

[6] = tested on: HL60 (human promyelocytic leukemia) xenograft; assay: HL60 xenograft assay, oral administration; format: in vivo; conditions: Mus musculus, HL-60, po, nu/nu mice, read-out: inhibition of tumor growth compared to vehicle
Method: as §3, with “HL60” for “HCT116”, “promyelocytic leukemia)” for “colon carcinoma)”, “6” for “14-21”, “implantation,” for “transplantation,”, “8-10” for “8-12”, “on” for “2 days after”
The experiment was conducted generally as described in In vivo Example 1. Groups of mice were treated with compounds 5A, 6A, 7A, 8A, and 10A at 200 mg/Kg by gavage once/day on days 1-5 and 8-10 from the start of treatment, with vehicle control. Tumor growth inhibition was measured the day after the last day of treatment.

[7] = tested on: HCT116 (human colon carcinoma); assay: Cytotoxicity assay (CellTiter-Glo), HCT116; format: cell-based; conditions: HCT-116, 72 h, HCT116 cells, three days culture, rounded to 1 significant figure
Method: as §1, §2

[8] = tested on: P388 and P388/ADR (doxorubicin-resistant) cells; assay: Cross-resistance, cytotoxicity in P388 and P388/ADR cells; format: cell-based, mouse; conditions: cytotoxicity in P388/ADR (doxorubicin-resistant) versus P388 cells
Method: Compounds 2A, 9A, and 12A were tested for cross-resistance in the P388 (mouse leukemia) cell line, by assaying its cytotoxicity in both P388 and P388/ADR (doxorubicin-resistant) cells. […] Several of the more cytotoxic compounds of formula A were tested and found not to be substrates for P-glycoprotein, an efflux pump commonly associated with multidrug-resistance in cancer cells.

[9] = 200 mg/Kg by gavage once/day days 1-5 and 8-10, measured on the last day of treatment (In vivo Example 1)
[10] = 200 mg/Kg by gavage once/day days 1-5 and 8-10, measured the day after the last day of treatment (In vivo Example 3)

SMILES | IC50 [1] [nM] | IC50 [2] [nM] | also measured
COC(=O)c1ccc(Nc2sc(C(=O)c3ccc(Cl)cc3)c(N)c2C#N)cc1 [Compound 30A] | 1000 |  | 
COc1ccc(C(=O)c2sc(Nc3ccc4c(c3)OCO4)c(C#N)c2N)cc1OC [Compound 16A] | 100 | 60 | 
COc1ccc(Nc2sc(C(=O)c3ccc(OC)cc3)c(N)c2C#N)cc1 [Compound 12A] | 50 | 40 | inhibition of tubulin polymerization (cell-free) (tubulin): inhibition of tubulin polymerization; IC50 [3]: 40 nM; IC50 [4]: 30 nM; inhibition of tumor growth compared to vehicle [5]: 46%; inhibition in vivo at 200 mg/kg [6, 9]: 66%; IC50 [7]: 40 nM
N#Cc1c(Nc2ccc(F)cc2)sc(C(=O)c2ccc(Cl)cc2)c1N [Compound 38A] | 2000 |  | 
COc1ccccc1C(=O)c1sc(Nc2ccc3c(c2)OCO3)c(C#N)c1N [Compound 21A] | 200 |  | inhibition of tubulin polymerization (cell-free) (tubulin): inhibition of tubulin polymerization
CCOc1ccc(Nc2sc(C(=O)c3ccc(OC)cc3)c(N)c2C#N)cc1 [Compound 17A] | 100 | 100 | 
N#Cc1ccc(C(=O)c2sc(Nc3ccc4c(c3)OCO4)c(C#N)c2N)cc1 [Compound 20A] | 200 |  | 
COc1ccc(Nc2sc(C(=O)c3ccc(OCCN(C)C)cc3)c(N)c2C#N)cc1 [Compound 39A] | 2000 |  | 
CCOc1ccc(Nc2sc(C(=O)c3ccc(OC)cc3OC)c(N)c2C#N)cc1 [Compound 6A, 4-amino-5-(2,4-dimethoxybenzoyl)-2-[(4-ethoxyphenyl)amino]thiophene-3-carbonitrile] | 30 | 50 | inhibition in vivo at 200 mg/kg [6, 10]: 89%; IC50 [7]: 30 nM
N#Cc1c(Nc2ccc3c(c2)OCO3)sc(C(=O)c2cccc(Cl)c2)c1N [Compound 35A] | 1000 |  | 
COc1ccc(C(=O)c2sc(Nc3ccc4c(c3)OCO4)c(C#N)c2N)cc1 [Compound 10A] | 40 | 40 | IC50 [3]: 30 nM; IC50 [4]: 40 nM; inhibition in vivo at 200 mg/kg [6, 10]: 67%
NC(=O)c1c(Nc2ccc3c(c2)OCO3)sc(C(=O)c2ccc(Cl)cc2)c1N [Compound 27A, 4-amino-2-(1,3-benzodioxol-5-ylamino)-5-(4-chlorobenzoyl)thiophene-3-carboxamide] | 600 | 200 | IC50 [4]: 300 nM; IC50 [7]: 600 nM
CN(C)CCOc1ccc(Nc2sc(C(=O)c3ccc(Cl)cc3)c(N)c2C#N)cc1 [Compound 36A] | 1000 |  | 
Cc1ccc(Nc2sc(C(=O)c3ccc(Cl)cc3)c(N)c2C#N)cc1 [Compound 14A] | 100 | 70 | inhibition of tubulin polymerization (cell-free) (tubulin): inhibition of tubulin polymerization; IC50 [7]: 80 nM
N#Cc1c(Nc2ccc([N+](=O)[O-])cc2)sc(C(=O)c2ccc(Cl)cc2)c1N [Compound 37A] | 2000 |  | 
COc1ccc(Nc2sc(C(=O)c3ccc(Cl)cc3)c(N)c2C#N)cc1OC [Compound 5A] | 20 | 20 | IC50 [3]: 20 nM; IC50 [4]: 20 nM; inhibition in vivo at 200 mg/kg [6, 10]: 45%; IC50 [7]: 20 nM
Cc1ccc(C(=O)c2sc(Nc3ccc4c(c3)OCO4)c(C#N)c2N)cc1 [Compound 19A] | 200 |  | 
CCOc1ccc(Nc2sc(C(=O)c3ccc(Cl)cc3)c(N)c2C(N)=O)cc1 [Compound 13A] | 60 | 30 | 
COc1ccc(C(=O)c2sc(Nc3ccc(OC)cc3OC)c(C#N)c2N)cc1 [Compound 32A] | 1000 |  | 
CCN(CC)c1ccc(C(=O)c2sc(Nc3ccc(OC)cc3OC)c(C#N)c2N)cc1 [Compound 26A] | 500 |  | 

SMILES | IC50 [1] [nM] | IC50 [2] [nM] | also measured
COc1cccc(C(=O)c2sc(Nc3ccc4c(c3)OCO4)c(C#N)c2N)c1 [Compound 25A] | 500 |  | 
CC[C@]1(O)C[C@@H]2CN(CCc3c([nH]c4ccccc34)[C@@](C(=O)OC)(c3cc4c(cc3OC)N(C)[C@H]3[C@@](O)(C(=O)OC)[C@H](OC(C)=O)[C@]5(CC)C=CCN6CC[C@]43[C@@H]65)C2)C1 [vinblastine] |  |  | resistance ratio [8]: 50 fold
N#Cc1c(Nc2ccc3c(c2)OCO3)sc(C(=O)c2ccc(Br)cc2)c1N [Compound 23A] | 300 |  | 
N#Cc1cccc(C(=O)c2sc(Nc3ccc4c(c3)OCO4)c(C#N)c2N)c1 [Compound 34A] | 1000 |  | 
N#Cc1c(Nc2ccc3c(c2)OCO3)sc(C(=O)c2ccc(F)cc2)c1N [Compound 33A] | 1000 |  | 
N#Cc1c(Nc2ccc(C(F)(F)F)cc2)sc(C(=O)c2ccc(Cl)cc2)c1N [Compound 31A] | 1000 |  | 
CC(C)c1ccc(Nc2sc(C(=O)c3ccc(Cl)cc3)c(N)c2C#N)cc1 [Compound 29A] | 800 |  | 
CCN(CC)c1ccc(C(=O)c2sc(Nc3ccc4c(c3)OCO4)c(C#N)c2N)cc1 [Compound 9A] | 40 | 40 | inhibition of tubulin polymerization (cell-free) (tubulin): inhibition of tubulin polymerization; IC50 [3]: 20 nM; IC50 [4]: 20 nM; inhibition of tumor growth compared to vehicle [5]: 36%; inhibition in vivo at 200 mg/kg [6, 9]: 43%; IC50 [7]: 40 nM
COc1ccc(Nc2sc(C(=O)c3ccc(Br)cc3)c(N)c2C#N)cc1 [Compound 3A] | 20 |  | 
CCN(CC)c1ccc(C(=O)c2sc(Nc3ccc(OC)c(OC)c3)c(C#N)c2N)cc1 [Compound 11A] | 50 |  | 
COc1ccc(Nc2sc(C(=O)c3ccc(OC)cc3OC)c(N)c2C#N)c(OC)c1 [Compound 22A] | 200 |  | 
N#Cc1c(Nc2ccc3c(c2)OCO3)sc(C(=O)c2cccc(Br)c2)c1N [Compound 41A] | 2000 |  | 
COc1ccc(Nc2sc(C(=O)c3ccc(OC)cc3)c(N)c2C(N)=O)cc1 [Compound 8A] | 40 | 30 | IC50 [3]: 7 nM; IC50 [4]: 10 nM; inhibition in vivo at 200 mg/kg [6, 10]: 10%
COc1ccc(C(=O)c2sc(Nc3ccc(OC)c(OC)c3)c(C#N)c2N)cc1 [Compound 28A] | 700 |  | 
COc1cc2c(c(OC)c1OC)-c1ccc(OC)c(=O)cc1[C@@H](NC(C)=O)CC2 [colchicine] |  |  | resistance ratio [8]: 70 fold
N#Cc1c(Nc2ccc3c(c2)OCO3)sc(C(=O)c2ccc(Cl)cc2)c1N [Compound 24A] | 300 | 80 | 
COc1cccc2c1C(=O)c1c(O)c3c(c(O)c1C2=O)C[C@@](O)(C(=O)CO)C[C@@H]3O[C@H]1C[C@H](N)[C@H](O)[C@H](C)O1 [doxorubicin] |  |  | resistance ratio [8]: 260 fold
CCOc1ccc(Nc2sc(C(=O)c3ccc(Cl)cc3)c(N)c2C#N)cc1 [Compound 4A] | 20 | 40 | IC50 [3]: 30 nM; IC50 [4]: 30 nM; IC50 [7]: 90 nM
COc1ccc(Nc2sc(C(=O)c3ccc(Cl)cc3)c(N)c2C(N)=O)cc1 [Compound 1A, 4-amino-5-(4-chlorobenzoyl)-2-[(4-methoxyphenyl)amino]thiophene-3-carboxamide] | 10 | 10 | IC50 [3]: 7 nM; IC50 [4]: 10 nM; IC50 [7]: 10 nM
